Patent publication US20160368992A1, “A METHOD OF INCREASING GIPCR SIGNALIZATION IN THE CELLS OF A SCOLIOTIC SUBJECT” (CHU SAINTE-JUSTINE, priority 2013, published 2016)

What was measured:
[1] = tested on: Gi proteins with MO, MT2 or β1 integrin receptors; assay: Immunoprecipitation/Western blot: interaction of Gi proteins with GPCR and β1 integrin in MC3T3-E1 cells; assay type: cell-based
Protocol: MC3T3-E1 cells were treated with PBS or rOPN (0.5 μg/ml) then the whole cell proteins (1 mg) were incubated with anti-MOR (Abcam Toronto, ON, Canada), anti-MT2 or anti-[…] (Santa Cruz Biotechnology), plus protein G beads for immunoprecipitation (IP) at 4° C. overnight. Purified proteins were loaded on 10% gel after IP, then, processed for gel transferring to PVDF membrane and 5% BSA blocking. Membranes were exposed to antibodies specific for Gi1, Gi2, Gi3, MOR, MT2 and β1 integrin at 4° C. overnight and, subsequently, treated with secondary antibody at room temperature for 1 h. Bands were visualized using SuperSignal™ chemiluminescent (Pierce, Rockford, Ill.) and quantified by densitometric scanning.
It is notable that when different receptors signal through the same subfamily of G proteins, they share the same limited pool of G proteins. Therefore, if OPN enhances the recruitment of Gi proteins in the β1 integrin complex, reduction in the amount of Gi proteins in GiPCR complex would be expected. To evaluate this possibility, cells lysates were immunoprecipitated with antibodies against MO, MT2 or β1 integrin receptors, and the presence of Gi proteins in each precipitate was examined by Western blot using antibodies specific for Gi1, Gi2 or Gi3 isoform. […]

[2] = tested on: MOR, LPA1R, MT2R receptors and Gi1, Gi2, Gi3 proteins; assay: Western blot and qPCR for expression of GPCRs and Gi protein isoforms in MC3T3-E1 cells; assay type: cell-based
Protocol: Thermo-Script™ reverse transcriptase (Invitrogen) was used to reverse transcribe mRNA into cDNA ([…] total concentration). Several dilutions were tested to choose the concentration that yielded the most efficient amplification. The human primers used were the following: […]
Each amplification was performed in duplicate using […] of diluted cDNA, […] of 3 mM primer solution and […] of 2× QuantiTect™ SYBR Green PCR Master Mix (QIAGEN Inc, Ontario, Canada). All reaction mixes were run on Mx3000P™ system from Stratagene (Agilent Technologies Company, La Jolla, Calif.) and analyzed with MxPro™ QPCR Software also from Stratagene. Relative quantification was calculated with the delta CT method using β-actin as the endogenous control.
Gi proteins isoforms expression levels were determined using Western blot technique. MC3T3-E1 cells were treated with PBS or rOPN 0.5 μg/ml overnight (R&D systems Inc., Minneapolis, USA). These cells were washed with cold PBS 1× then lysed in RIPA buffer (25 mM Tris.Hcl pH7.4, 150 mM NaCl, 1% NP-40, 1% sodium deoxycholate, 0.1% SDS) added with 5 mM NaVO4 and protease inhibitor cocktail (Roche molecular Biochemicals, Mannheim, Germany). Immunoblots were performed with primary antibodies directed specifically against Gi1, Gi2, Gi3, Gs, Phosphoserine, integrin β1 (Santa Cruz Biotechnology, Santa Cruz, Calif.), Mu opioid receptor (MOR) (abcam Toronto, ON, Canada), Lysophosphatidic acid receptor 1 (LPAR1) (assaybiotech Inc., USA), melatonin receptor 2 (MT2) and peroxidase-conjugated secondary antibody. […]
Given that the level of GPCRs is critical for their signaling, it was of interest to examine whether the defective GiPCR signaling induced by OPN is the consequence of a quantitative reduction of these receptors. For this purpose, MC3T3-E1 cells were treated with PBS or rOPN and the cell lysates were analyzed by Western blot for the expression of three different GPCRs; including mu-opioid (MOR), lysophosphatidic acid type 1 (LPA1R) and melatonin type 2 (MT2R) receptors. […]

GiPCR signaling [3] = assay: CDS integrated response to GiPCR ligands in MC3T3-E1 osteoblastic cell line; assay type: cell-based; details: MC3T3-E1 cells treated with rOPN prior to stimulation
Protocol: The functional evaluation of Gi, Gs and Gq proteins was assessed by CDS assays using osteoblasts cells derived from C57Bl/6j WT and C57Bl/6j OPN^−/− mice (bipedal and quadrupedal) using CellKey™ apparatus, as previously described (Akoume et al., 2010, and WO 2010/040234 to Moreau et al.).
MC3T3-E1 cells were used to check the effect of the knockdown of OPN and its receptors. MC3T3-E1 osteoblasts cells were transiently transfected in serum-free medium, using Lipofectamine™ RNAiMAX reagent (Invitrogen) according to the manufacturer's instructions and functional experiments were performed 48 h post transfection. The sequence of RNA oligonucleotides used for the knockdown of different genes are, ssp1 (encodes OPN) (CCACAGCCACAAGCAGUCCAGAUUA (SEQ ID NO: 9)), integrin β1 (CCUAAGUCAGCAGUAGGAACAUUAU (SEQ ID NO: 10)), integrin β3 (CCUCCAGCUCAUUGUUGAUGCUUAU (SEQ ID NO: 11)), integrin α5 (CCGAGUACCUGAUCAACCUGGUUCA (SEQ ID NO: 12)), integrin α8 (GAGAUGAAACUGAAUUCCGAGAUAA (SEQ ID NO: 13)), integrin αv (GACUGUUGAGUAUGCUCCAUGUAGA (SEQ ID NO: 14 and CD44 (GAACAAGGAGUCGUCAGAAACUCCA (SEQ ID NO: 15)). Two other siRNAs against integrin α5 were tested (UCCACCAUGUCUAUGAGCUCAUCAA (SEQ ID NO:16) and UCAGGAGCAGAUUGCAGAAUCUUAU (SEQ ID NO:17)).
To further investigate the role of OPN in Gi protein-mediated receptor signaling, several lines of experiments were performed using MC3T3-E1 osteoblastic cell line. Since these cells express OPN, was first examined whether depletion of OPN by siRNA influences the capacity of GiPCR ligands to induce cell signaling as measured by CDS in MC3T3-E1 cells. […] Similar results were obtained when cells were stimulated with oxymethazolin. […] To confirm this hypothesis, cells were treated with exogenous recombinant OPN (rOPN) prior to DAMGO and oxymethazolin stimulation.

GiPCR signaling [4] = assay: CDS (CellKey) functional evaluation of Gi protein-mediated receptor signaling in primary mouse osteoblasts; assay type: cell-based, mice; details: osteoblasts from bipedal CD44 knockout (CD44-/-) mice

For “rOPN: exogenous recombinant osteopontin (R&D systems)”, the “amount of Gi protein isoforms in the β1 integrin precipitates” value ([1]; following rOPN treatment) was “elevated”, the “relative amount of Gi isoforms immunoprecipitated with MO or MT2 receptor” value ([1]; rOPN-treated vs PBS-treated cells) was “reduced” and the “level of MOR, LPA1R and MT2R receptors” value ([2]; Western blot, rOPN vs PBS) was “not modified”. For the same substance, the “quantity of Gi proteins (Gi1, Gi2, Gi3)” value ([2]; immunoblotting, relative to PBS-treated cells) was “no significant effect”, the “mRNA expression of Gi isoforms” value ([2]; qPCR, PBS- vs rOPN-treated cells) was “no significant difference” and the “integrated response to DAMGO and oxymethazolin after rOPN treatment” value (GiPCR signaling [3]) was “decrease in the integrated response in a concentration-dependent manner”. For the same substance, the “response to DAMGO and oxymethazolin after rOPN treatment” value (GiPCR signaling [4]) was “concentration-dependent decrease in response”.
